Measurements taken from patent US6392045B1, “9-azobicyclo[3.3.1] non-2-ene derivatives as cholinergic ligands at nicotinic ACH receptors” (NeuroSearch A/S, priority 1997, dated 2002).
Structures can show the parent of a compound that is named as a salt. Where two headings read alike, the source gives them in different places.

How the values were obtained:
[1] = biological target: T1, α4β2 subtype of nicotinic receptors (neuronal nicotinic receptors) (Rattus norvegicus, UniProt P09483+P12390); experiment: In vitro inhibition of 3H-epibatidin binding
T1 construct: The forebrain (÷cerebellum) from a male Wistar rat (150-250 g) is homogenized; from tissue; host or cells: rat forebrain (without cerebellum) homogenate (male Wistar)
T1 sequence (P09483 31-630): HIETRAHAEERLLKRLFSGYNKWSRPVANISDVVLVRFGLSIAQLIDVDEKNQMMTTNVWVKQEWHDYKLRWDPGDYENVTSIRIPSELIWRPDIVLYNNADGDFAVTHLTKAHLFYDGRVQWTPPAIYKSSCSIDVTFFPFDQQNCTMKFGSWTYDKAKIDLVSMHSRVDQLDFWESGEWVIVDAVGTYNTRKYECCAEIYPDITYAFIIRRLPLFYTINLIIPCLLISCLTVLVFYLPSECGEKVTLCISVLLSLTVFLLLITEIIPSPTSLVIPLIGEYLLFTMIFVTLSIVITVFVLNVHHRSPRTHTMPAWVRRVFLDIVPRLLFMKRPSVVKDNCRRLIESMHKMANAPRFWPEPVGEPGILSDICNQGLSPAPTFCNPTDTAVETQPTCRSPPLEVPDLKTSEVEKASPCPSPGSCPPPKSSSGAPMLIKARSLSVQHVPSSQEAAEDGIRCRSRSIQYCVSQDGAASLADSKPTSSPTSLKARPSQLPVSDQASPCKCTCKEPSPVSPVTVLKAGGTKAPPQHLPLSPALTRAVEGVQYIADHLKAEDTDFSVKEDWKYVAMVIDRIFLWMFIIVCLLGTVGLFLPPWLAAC
T1 sequence (P12390 25-500): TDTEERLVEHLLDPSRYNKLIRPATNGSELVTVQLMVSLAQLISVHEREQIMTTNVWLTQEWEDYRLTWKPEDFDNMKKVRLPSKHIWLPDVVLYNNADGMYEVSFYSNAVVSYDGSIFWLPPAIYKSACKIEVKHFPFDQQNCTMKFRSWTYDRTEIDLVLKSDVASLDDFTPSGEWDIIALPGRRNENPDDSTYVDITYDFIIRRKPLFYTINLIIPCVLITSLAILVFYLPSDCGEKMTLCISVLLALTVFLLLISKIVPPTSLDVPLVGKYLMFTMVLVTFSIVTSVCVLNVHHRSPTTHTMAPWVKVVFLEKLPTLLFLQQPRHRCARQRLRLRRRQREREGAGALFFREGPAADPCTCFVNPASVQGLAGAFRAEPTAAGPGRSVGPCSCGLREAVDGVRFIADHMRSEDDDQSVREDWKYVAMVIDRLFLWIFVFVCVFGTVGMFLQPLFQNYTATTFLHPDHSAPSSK
Method: In Vitro Inhibition of ^3H-epibatidin Binding
The high affinity binding site for ^3H-epibatidin is most certainly binding to the α4β2 subtype of nicotinic receptors. The identity of the low affinity site is still unknown; does it represent a second nicotinic receptor or a second site in the same receptor.
Tissue preparation: Preparations are performed at 0-4° C. unless otherwise indicated. The forebrain (÷cerebellum) from a male Wistar rat (150-250 g) is homogenized for 10-20 sec in 20 ml Tris, HCl (50 mM, pH 7.4) using an Ultra-Turrax homogenizer. The tissue suspension is centrifuged at 27,000×g for 10 min. The supernatant is discarded and the pellet is washed three times by centrifugation at 27,000×g for 10 min in 20 ml fresh buffer, and the final pellet is resuspended in fresh buffer (400 ml per g of original tissue) and used for binding assays.
Assay: Aliquots of 2.0 ml homogenate are added to 0.100 ml of test solution and 0.100 ml of ^3H-epibatidin (0.3 nM, final concentration), mixed and incubated for 60 min at room temperature. Non-specific binding is determined using (−)-nicotine (30 μM, final concentration). After incubation the samples are poured directly onto Whatman GF/C glass fibre filters (presoaked in 0.1% PEI for at least 20 min) under suction and immediately washed with 2×5 ml ice-cold buffer. The amount of radioactivity on the filters is determined by conventional liquid scintillation counting. Specific binding is total binding minus non-specific binding.

[2] = biological target: nAChR formed by the α7 subunit isoform (Rattus norvegicus, UniProt Q05941); experiment: biochemical; format: binding
Chain of nAChR formed by the α7 subunit isoform (Q05941 23-502): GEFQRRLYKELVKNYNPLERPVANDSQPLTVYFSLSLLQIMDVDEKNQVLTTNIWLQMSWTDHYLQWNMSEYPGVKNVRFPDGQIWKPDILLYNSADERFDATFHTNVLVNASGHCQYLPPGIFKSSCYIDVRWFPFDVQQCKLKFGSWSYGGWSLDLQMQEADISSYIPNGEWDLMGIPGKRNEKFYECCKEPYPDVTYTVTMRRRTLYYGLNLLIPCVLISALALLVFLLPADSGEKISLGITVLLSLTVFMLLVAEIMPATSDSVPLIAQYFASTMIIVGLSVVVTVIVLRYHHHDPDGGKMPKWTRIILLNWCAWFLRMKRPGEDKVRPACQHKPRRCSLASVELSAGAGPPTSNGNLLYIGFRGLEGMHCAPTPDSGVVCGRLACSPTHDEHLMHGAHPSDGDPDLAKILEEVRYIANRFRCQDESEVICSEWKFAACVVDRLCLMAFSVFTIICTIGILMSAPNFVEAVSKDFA

[3] = biological target: nAChRs comprised of α4 and β2 subunits (Rattus norvegicus, UniProt P09483+P12390); experiment: In vitro inhibition of 3H-cytisine binding
Chain of nAChRs comprised of α4 and β2 subunits (P09483 31-630): as the sequence (P09483 31-630) above
Chain of nAChRs comprised of α4 and β2 subunits (P12390 25-500): as the sequence (P12390 25-500) above
Method: In Vitro Inhibition of ^3H-cytisine Binding
The predominant subtype with high affinity for nicotine is comprised of α4 and β2 subunits. nAChRs of the latter type can selectively be labelled by the nicotine agonist ^3H-cytisine.
Tissue Preparation: Preparations are performed at 0-4° C. unless otherwise indicated. […] The homogenate is centrifuged at 27,000×g for 10 min. The supernatant is discarded and the pellet is resuspended in fresh buffer and centrifuged a second time. The final pellet is resuspended in fresh buffer (35 ml per g of original tissue) and used for binding assays.
Assay: Aliquots of 500 μl homogenate are added to 25 μl of test solution and 25 μl of ^3H-cytisine (1 nM, final concentration), mixed and incubated for 90 min at 2° C. Non-specific binding is determined using (−)-nicotine (100 μM, final concentration). After incubation the samples are added 5 ml of ice-cold buffer and poured directly onto Whatman GF/C glass fibre filters under suction and immediately washed with 2×5 ml ice-cold buffer. The amount of radioactivity on the filters is determined by conventional liquid scintillation counting. Specific binding is total binding minus non-specific binding.

[4] = read-out: 3H-α-bungarotoxin IC50
[5] = rat cerebral cortex homogenate, 1 nM 3H-cytisine, 90 min at 2° C., read-out: 3H-cytisine IC50

Compound `C1=C(c2cccnc2)CC2CCCC1N2Cc1ccccc1.O=C(O)/C=C/C(=O)O` (racemic) has a melting point of 186 to 187 °C.
`CN1C2C=C(c3ccc4c(c3)OCO4)CC1CCC2.O=C(O)/C=C/C(=O)O` (racemic) showed a melting point of 159 to 163 °C.
In the case of `CN1C2C=C(c3cccc4ncccc34)CC1CCC2` (racemic), the melting point is reported as 142 to 144 °C.
Compound `CN1C2C=C(c3nc4ccccc4s3)CC1CCC2.O=C(O)/C=C/C(=O)O` (racemic) has a melting point of 176 to 177 °C.
Compound `COc1cncc(C2=CC3CCCC(C2)N3C)c1` (racemic) (as salt: fumaric acid salt) [Compound 2a, (±)-3-[3-(5-Methoxy)-pyridyl]-9-methyl-9-azabicyclo[3.3.1]non-2-ene Fumaric Acid Salt] has a melting point of 125 to 126.5 °C.
`CN1C2C=C(c3cncc(-c4ccccc4)c3)CC1CCC2` (racemic) (as salt: fumaric acid salt) [Compound 3a, (±)-9-Methyl-3-[3-(5-phenyl)-pyridyl]-9-azabicyclo[3.3.1]non-2-ene Fumaric Acid Salt] showed a melting point of 147.5 to 149.5 °C.
In the case of `COc1ccc(C2=CC3CCCC(C2)N3C)cn1` (racemic) (as salt: fumaric acid salt) [Compound 5b, (±)-3-[3-(6-Methoxy)-pyridyl)]-9-methyl-9-azabicyclo[3.3.1]non-2-ene Fumaric Acid Salt], the melting point is reported as 116 to 124 °C.
For `C1=C(c2cccnc2)CC2CCCC1N2` (racemic) (as salt: fumaric acid salt) [Compound 11c, (±)-9-H-3-(3-Pyridyl)-9-azabicyclo[3.3.1]oct-2-ene Fumaric Acid Salt], the melting point was 188.5 to 190 °C.
With `CN1C2C=C(c3ccc4ccccc4c3)CC1CCC2` (racemic) (as salt: oxalic acid salt) [Compound 8c, (±)-3-(2-Naphtyl)-9-methyl-9-azabicyclo[3.3.1]non-2-ene Oxalic Acid Salt] the melting point was 87.9 to 92.2 °C.
Compound `CN1C2C=C(c3cccnc3)CC1CCC2.O=C(O)/C=C/C(=O)O` (racemic) [Compound 1a, (±)-9-Methyl-3-(3-pyridyl)-9-azabicyclo[3.3.1]non-2-ene Fumaric Acid Salt] has an IC50 [1] of 84 nM, an IC50 [2, 4] of 500 nM and an IC50 [3] of 23 nM. It also gave a melting point of 164.5 to 166.5 °C.
In the case of `CN1C2C=C(c3cncnc3)CC1CCC2.O=C(O)/C=C/C(=O)O` (racemic) [Compound 1b, (±)-9-Methyl-3-(5-pyrimidyl)-9-azabicyclo[3.3.1]non-2-ene Fumaric Acid Salt], the IC50 [1] is reported as 52 nM, the IC50 [2, 4] is reported as 1600 nM and the IC50 [3] is reported as 78 nM. For the same compound, the melting point was 198 to 202 °C.
Compound `CN1C2C=C(c3cccc(N)c3)CC1CCC2.O=C(O)/C=C/C(=O)O` (racemic) [Compound 1c, (±)-3-(3-Aminophenyl)-9-methyl-9-azabicyclo[3.3.1]non-2-ene Fumaric Acid Salt] has an IC50 ([1]; rat forebrain homogenate, 0.3 nM 3H-epibatidin, 60 min at room temperature, read-out: 3H-epibatidin IC50) of 180 nM, an IC50 [2] of 220 nM and an IC50 [3, 5] of 40 nM. It also gave a melting point of 174 to 180 °C.
In the case of `CN1C2C=C(c3cccn3C)CC1CCC2` (racemic) [Compound 1d, (±)-3-[2-(1-Methyl-pyrrolyl)]-9-methyl-9-azabicyclo[3.3.1]non-2-ene], the IC50 [2, 4] is reported as 1900 nM and the IC50 [3] is reported as 1800 nM.
`COc1cncc(C2=CC3CCCC(C2)N3C)c1` (racemic) [Compound 2a, (±)-3-[3-(5-Methoxy)-pyridyl]-9-methyl-9-azabicyclo[3.3.1]non-2-ene Fumaric Acid Salt] gave an IC50 [1] of 76 nM, an IC50 [2, 4] of 2000 nM and an IC50 [3] of 17 nM.
For `CN1C2C=C(c3cncc(-c4cccnc4)c3)CC1CCC2.O=C(O)/C=C/C(=O)O` (racemic) [Compound 2b, (±)-9-Methyl-3-[5-(3-pyridyl)-3-pyridyl]-9-azabicyclo[3.3.1]non-2-ene Fumaric Acid Salt], the IC50 [1] was 240 nM, the IC50 [2, 4] was 17000 nM and the IC50 [3] was 13 nM. For the same compound, the melting point was 206 to 208 °C.
In the case of `CC(=O)Nc1cccc(C2=CC3CCCC(C2)N3C)c1.CC(=O)O` (racemic) [Compound 2c, (±)-3-(3-Acetamidophenyl)-9-methyl-9-azabicyclo[3.3.1]non-2-ene Acetic Acid Salt], the IC50 [1] is reported as 290000 nM, the IC50 [2, 4] is reported as 1700 nM and the IC50 [3] is reported as 85000 nM. It also gave a melting point of 59.9 to 63.4 °C.
`CC(=O)C1=CC2CCCC(C1)N2C.O=C(O)/C=C/C(=O)O` (racemic) [Compound 2d, (±)-3-Acetyl-9-methyl-9-azabicyclo[3.3.1]non-2-ene Fumaric Acid Salt] gave an IC50 [1] of 1100 nM, an IC50 [2, 4] of 4200 nM and an IC50 [3] of 590 nM. For the same compound, the melting point was 149 to 151 °C.
Work on `CN1C2C=C(c3cncc(-c4ccccc4)c3)CC1CCC2` (racemic) [Compound 3a, (±)-9-Methyl-3-[3-(5-phenyl)-pyridyl]-9-azabicyclo[3.3.1]non-2-ene Fumaric Acid Salt] yielded an IC50 [1] of 150 nM, an IC50 [2, 4] of 4100 nM and an IC50 [3] of 25 nM.
Compound `CN1C2C=C(c3cccc(N4CCCC4)c3)CC1CCC2` (racemic) [Compound 3c, (±)-3-[3-(1-Pyrrolidinyl)-phenyl]-9-methyl-9-azabicyclo[3.3.1]non-2-ene] has an IC50 [1] greater than 10000 nM, an IC50 [2] of 18000 nM and an IC50 [3, 5] greater than 10000 nM.
For `COc1cncc(C2=CC3CCCC(C2)N3)c1` (racemic) [Compound 3d, (±)-9-H-3-(3-(5-methoxy)-pyridyl)-9-azabicyclo[3.3.1]non-2-ene], the IC50 [1] was 18 nM, the IC50 [2, 4] was 17 nM and the IC50 [3, 5] was 3 nM.
Compound `CN1C2C=C(c3cc4ccccc4o3)CC1CCC2` (racemic) [Compound 4a, (±)-3-(2-Benzofuryl)-9-methyl-9-azabicyclo[3.1]non-2-ene Fumaric Acid Salt] has an IC50 [1] greater than 300000 nM, an IC50 [2] of 190 nM and an IC50 [3, 5] greater than 300000 nM.
`CN1C2C=C(c3cncc(-c4ccc(Oc5ccccc5)cc4)c3)CC1CCC2.O=C(O)/C=C/C(=O)O` (racemic) [Compound 4b, (±)-3-[5-(4-Phenoxyphenyl)-3-pyridyl]-9-methyl-9-azabicyclo[3.3.1]non-2-ene Fumaric Acid Salt] showed an IC50 [1] of 690 nM, an IC50 [2, 4] of 17000 nM and an IC50 [3] of 350 nM. It also gave a melting point of 166 to 168 °C.
Compound `CN1C2C=C(c3ccoc3)CC1CCC2.O=C(O)/C=C/C(=O)O` (racemic) [Compound 4c, (±)-3-(3-Furyl)-9-methyl-9-azabicyclo[3.3.1]non-2-ene Fumaric Acid Salt] has an IC50 [1] of 5000 nM, an IC50 [2, 4] of 660 nM and an IC50 [3] of 2000 nM. The melting point was 167 to 174 °C.
With `COc1ccc(C2=CC3CCCC(C2)N3C)cn1` (racemic) [Compound 5b, (±)-3-[3-(6-Methoxy)-pyridyl)]-9-methyl-9-azabicyclo[3.3.1]non-2-ene Fumaric Acid Salt] the IC50 [1] was 17000 nM, the IC50 [2, 4] was 2300 nM and the IC50 [3] was 2000 nM.
With `CN1C2C=C(c3cccc([N+](=O)[O-])c3)CC1CCC2.O=C(O)/C=C/C(=O)O` (racemic) [Compound 5c, (±)-9-Methyl-3-(3-nitrophenyl)-9-azabicyclo[3.3.1]non-2-ene Fumaric Acid Salt] the IC50 [1] was 3900 nM, the IC50 [2, 4] was 2200 nM and the IC50 [3] was 2700 nM. The melting point was 133 to 144 °C.
`CN1C2C=C(c3cc4ccccc4s3)CC1CCC2` (racemic) [Compound 7a, (±)-3-(2-Benzothienyl)-9-methyl-9-azabicyclo[3.3.1]non-2-ene] showed an IC50 [1] of 280000 nM, an IC50 [2] of 160 nM and an IC50 [3, 5] of 280000 nM.
`CN1C2C=C(c3cc4ccccc4o3)CC1CCC2.O=C(O)/C=C/C(=O)O` (racemic) [Compound 7c, (±)-3-(2-Benzofuryl)-9-methyl-9-azabicyclo[3.3.1]non-2-ene Fumaric Acid Salt] gave an IC50 [2] of 190 nM, an IC50 [3, 5] greater than 300000 nM and a melting point of 184 to 186 °C.
With `CN1C2C=C(c3ccc4ccccc4c3)CC1CCC2` (racemic) [Compound 8c, (±)-3-(2-Naphtyl)-9-methyl-9-azabicyclo[3.3.1]non-2-ene Oxalic Acid Salt] the IC50 [1] was greater than 300000 nM, the IC50 [2] was 370 nM and the IC50 [3, 5] was greater than 300000 nM.
Work on `C1=C(c2cccnc2)CC2CCCC1N2` (racemic) [Compound 11c, (±)-9-H-3-(3-Pyridyl)-9-azabicyclo[3.3.1]oct-2-ene Fumaric Acid Salt] yielded an IC50 [1] of 46 nM, an IC50 [2, 4] of 170 nM and an IC50 [3, 5] of 4.5 nM.
